The record followed here is PubChem BioAssay (NCI).

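1) Cells in 96-well plates. 2) Compound, 48 h, 5 concentrations. 3) Linear interpolation between surrounding doses. 4) Unreached endpoint = highest concentration. At the GI50, growth is halved. Definition used: TGI = concentration required for complete inhibition of growth.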

Some test systems named below: SK-OV-3 ovarian; NCI-H522 lung; MALME-3M melanoma; SR leukemia; PC-3 prostate; SW-620 colon; IGROV1 ovarian; SN12C renal; SF-268 CNS; SF-295 CNS.
What all share (test): NCI-60 cell line screen, 48 h

In the case of `C[C@@H]1CC[C@@]2(NC1)O[C@H]1C[C@H]3[C@@H]4CC[C@H]5C[C@@H](O)CC[C@]5(C)[C@H]4CC[C@]3(C)[C@H]1[C@@H]2C`, the TGI in the test on SK-OV-3 ovarian, in the test on NCI-H522 lung, in the test with MALME-3M melanoma, in the test with SR leukemia, in the test with PC-3 prostate and in the test on SW-620 colon was greater than 100 µM in each case. Moreover, the TGI in the test on IGROV1 ovarian, in the test on SN12C renal, in the test on SF-268 CNS and in the test with SF-295 CNS was greater than 100 µM throughout.
Consider `COc1ccc2[nH]c(C(=O)OCc3ccc4c(Cl)cc(Cl)c(O)c4n3)cc2c1`, for which the GI50 in the test on SK-OV-3 ovarian is 4.06 µM; in the test on NCI-H522 lung, 1.19 µM; in the test with MALME-3M melanoma, 1.48 µM; with SR leukemia, 0.38 µM; in the test on PC-3 prostate it was 0.99 µM; in the test on SW-620 colon, 0.814 µM. Besides, the GI50 in the test with IGROV1 ovarian was 0.601 µM; with SN12C renal, 1.24 µM; in the test with SF-268 CNS, 1.42 µM; in the test on SF-295 CNS, 5.12 µM. For the same compound, the TGI with SK-OV-3 ovarian came to 17.7 µM; in the test on NCI-H522 lung, 2.99 µM; in the test with MALME-3M melanoma, 2.82 µM; in the test with SR leukemia, 3.7 µM; in the test with PC-3 prostate it was 2.57 µM; in the test with SW-620 colon, 2.31 µM. Besides, the TGI in the test with IGROV1 ovarian is 1.95 µM; with SN12C renal, 2.51 µM; in the test with SF-268 CNS it was 2.77 µM; with SF-295 CNS it was 18 µM.
Turning to `C[C@]12C[C@H](O)[C@H]3[C@@H](CCC4=CC(=O)CC[C@@]43C)[C@@H]1CC[C@@H]2c1csc(-c2ccccc2)n1`, the TGI is greater than 100 µM with SK-OV-3 ovarian; greater than 100 µM in the test with NCI-H522 lung; 97.3 µM with MALME-3M melanoma; greater than 100 µM with SR leukemia; 20.3 µM in the test with PC-3 prostate; greater than 100 µM in the test with SW-620 colon. Moreover, the TGI in the test on IGROV1 ovarian, in the test on SN12C renal, in the test on SF-268 CNS and in the test on SF-295 CNS was greater than 100 µM throughout.
Take `O=C[C@@H](CO)O[C@H](C=O)n1cnc2c(=O)[nH]cnc21`: the TGI in the test on SK-OV-3 ovarian worked out at 1630 µM; in the test on NCI-H522 lung it was 866 µM; in the test on MALME-3M melanoma, 1300 µM; in the test on SR leukemia, 1210 µM; with PC-3 prostate, 1780 µM; in the test with SW-620 colon, 868 µM. Further, the TGI in the test with IGROV1 ovarian stood at 1360 µM; in the test on SN12C renal, 1380 µM; with SF-268 CNS, 1840 µM; in the test with SF-295 CNS, 2230 µM.
With `CN(N)c1nc(N)c(C#N)c(C#N)c1C#N`, the TGI in the test with SK-OV-3 ovarian, in the test with NCI-H522 lung, in the test with MALME-3M melanoma, in the test on SR leukemia, in the test on PC-3 prostate and with SW-620 colon was greater than 10 µM in each case. In addition, the TGI with IGROV1 ovarian, with SN12C renal, with SF-268 CNS and in the test on SF-295 CNS was greater than 10 µM in each case.
Turning to `CC(C)(C)OC(=O)N[C@@H](Cc1ccccc1)C(=O)N(Cc1ccccc1)C1(C(=O)NCc2ccccc2)CCN(Cc2ccccc2)CC1`, the GI50 was 3 µM with SK-OV-3 ovarian; 4.02 µM in the test on NCI-H522 lung; 3.02 µM with MALME-3M melanoma; 2.33 µM with SR leukemia; 2.46 µM with PC-3 prostate; 3.49 µM with SW-620 colon. Besides, the GI50 was 5.7 µM in the test on IGROV1 ovarian, 3.45 µM in the test on SN12C renal, 4.88 µM in the test with SF-268 CNS and 2.9 µM in the test with SF-295 CNS. Besides, the TGI in the test with SK-OV-3 ovarian was greater than 100 µM; in the test with NCI-H522 lung, greater than 100 µM; with SR leukemia it was 7.51 µM; in the test with PC-3 prostate it was greater than 100 µM; in the test on SW-620 colon it was greater than 100 µM; in the test on IGROV1 ovarian, greater than 100 µM. The TGI in the test with SN12C renal, in the test with SF-268 CNS and in the test with SF-295 CNS was greater than 100 µM throughout.
`Cc1ccc(C(=O)NC2CC2)cc1-c1ccc2[nH]ncc2c1`: the GI50 in the test on SK-OV-3 ovarian, in the test on NCI-H522 lung, with MALME-3M melanoma, in the test with SR leukemia, in the test on PC-3 prostate and in the test with SW-620 colon was greater than 25 µM in each case. The GI50 in the test with IGROV1 ovarian, with SN12C renal, in the test on SF-268 CNS and with SF-295 CNS was greater than 25 µM each time. Moreover, the TGI in the test on SK-OV-3 ovarian, in the test with NCI-H522 lung, in the test on MALME-3M melanoma, in the test on SR leukemia, in the test with PC-3 prostate and in the test with SW-620 colon was greater than 25 µM throughout. Also, the TGI in the test with IGROV1 ovarian, in the test with SN12C renal, in the test with SF-268 CNS and in the test with SF-295 CNS was greater than 25 µM each time.
For `C[N+](C)=c1ccc2nc3c(cc(NCCCNc4cc5oc6cc(=[N+](C)C)ccc-6nc5c5ccccc45)c4ccccc43)oc-2c1`, the GI50 with SK-OV-3 ovarian is 18.7 µM; with NCI-H522 lung, 1.5 µM; with MALME-3M melanoma, 2.05 µM; in the test with SR leukemia, 2.58 µM; in the test on PC-3 prostate, 1.2 µM; in the test with SW-620 colon, 1.77 µM. Further, the GI50 is 1.36 µM in the test on IGROV1 ovarian, 2.33 µM in the test on SN12C renal, 2.17 µM in the test on SF-268 CNS and 4.64 µM in the test on SF-295 CNS. The TGI was 42.3 µM in the test with SK-OV-3 ovarian; 4.59 µM in the test on NCI-H522 lung; 4.45 µM with MALME-3M melanoma; greater than 28.5 µM in the test on SR leukemia; 5.64 µM in the test with PC-3 prostate; 4.02 µM in the test with SW-620 colon. The TGI in the test on IGROV1 ovarian is 8.67 µM; with SN12C renal, 7.39 µM; in the test on SF-268 CNS, 9.2 µM; in the test on SF-295 CNS, 31.8 µM.
Turning to `Cc1cccc2c1[nH]c(=O)c1c3ccccc3cn21`, the GI50 in the test with SK-OV-3 ovarian is 27.5 µM; with NCI-H522 lung, 6.52 µM; with MALME-3M melanoma, 8.23 µM; with SR leukemia, 1.54 µM; with PC-3 prostate, 3.9 µM; with SW-620 colon it was 5.76 µM. Moreover, the GI50 with IGROV1 ovarian was 3.69 µM; with SN12C renal, 1.81 µM; with SF-268 CNS, 3.03 µM; in the test on SF-295 CNS, 2.64 µM. The TGI in the test with SK-OV-3 ovarian was greater than 100 µM; with NCI-H522 lung, 64.1 µM; in the test with MALME-3M melanoma, 24.7 µM; with SR leukemia, 4.15 µM; in the test on PC-3 prostate, 29.3 µM; in the test with SW-620 colon it was 17.8 µM. In addition, the TGI in the test on IGROV1 ovarian is greater than 100 µM; in the test with SN12C renal it was 18.8 µM; in the test with SF-268 CNS it was 8.49 µM; with SF-295 CNS it was 25.1 µM.
